# Measured values: article PMC8175350, “Drug repurposing screens identify chemical entities for the development of COVID-19 interventions” (Nature Communications, 2021)
# Counter-ions that a name gives are not always drawn. Like-named read-outs stand apart in the source and are kept apart here.
# Tests used:
# [1] = tested on: HeLa-ACE2 cells; test: cells; settings: Homo sapiens; for EC50: HeLa-ACE2, read-out: HeLa-ACE2 cell count EC50 GeoMean; for Emax: HeLa-ACE2, 24 h, read-out: HeLa-ACE2 cell count Sinf Average
# [2] = Uninfected HeLa-ACE2 24 h live/dead cytotoxicity counter screen; assay type: cell-based, human; settings: human, uninfected HeLa-ACE2 cells
# [3] = tested on: HeLa-ACE2 cells; test: as above; assay type: cell-based, human
# [4] = tested on: SARS-CoV-2; test: microbe, parasite or virus in culture; assay type: cell-based; settings: for Emax: Severe acute respiratory syndrome coronavirus 2, HeLa-ACE2, 10 h, read-out: HeLa-ACE2 TOA CoV-2 Sinf Average; for EC50: read-out: HeLa-ACE2 TOA CoV-2 EC50 GeoMean
# [5] = tested on: HEK293T; settings: human
# [6] = tested on: HeLa-ACE2 cells; test: Total cell count in the HeLa-ACE2 TOA assay; assay type: cell-based; settings: Homo sapiens; for Emax: HeLa-ACE2, 10 h, curve plateau at infinite concentration, read-out: HeLa-ACE2 TOA cell count Sinf Average; for EC50: HeLa-ACE2, read-out: HeLa-ACE2 TOA cell count EC50 GeoMean
# Source text: Supplement 41467_2021_23328_MOESM3_ESM.xlsx, sheet "Table S1" | column: HeLa-ACE2 TOA cell count
# [7] = tested on: SARS-CoV-2; test: microbe, parasite or virus in culture; assay type: cell-based; settings: for Emax: Severe acute respiratory syndrome coronavirus 2, Calu-3, 48 h, read-out: Calu-3 CoV-2 Sinf Average
# [8] = in vitro; settings: human
# [9] = tested on: Calu-3 cells; settings: for Calu-3 uninfected cytotoxicity Sinf Average: human
# [10] = tested on: Calu-3 cells; test: cells; settings: Homo sapiens; for Emax: Calu-3, 48 h, read-out: Calu-3 cell count Sinf Average; for EC50: Calu-3, read-out: Calu-3 cell count EC50 GeoMean
# [11] = tested on: HepG2; settings: human
# [12] = tested on: SARS-CoV-2; test: microbe, parasite or virus in culture; assay type: cell-based
# [13] = tested on: HepG2; test: HepG2 72 h CellTiter-Glo cytotoxicity; settings: 72 h
# [14] = tested on: HEK293T; test: HEK293T 72 h CellTiter-Glo cytotoxicity; settings: 72 h
# [15] = HEK293T 72 h CellTiter-Glo cytotoxicity; settings: human, HEK293T cells
# [16] = HepG2 72 h CellTiter-Glo cytotoxicity; settings: human, HepG2 cells
# [17] = Uninfected Calu-3 48 h Cell-Titer Glo cytotoxicity counter screen; settings: human, uninfected Calu-3 cells
# [18] = tested on: Calu-3 cells; test: as above
# [19] = read-out: HeLa-ACE2 uninfected cytotoxicity CC50 GeoMean
# [20] = curve plateau at infinite concentration
# [21] = Severe acute respiratory syndrome coronavirus 2, HeLa-ACE2
# [22] = Severe acute respiratory syndrome coronavirus 2, Calu-3, detail column, read-out: Calu-3 CoV-2 EC50 GeoMean
# [23] = Calu-3 uninfected cytotoxicity CC50 GeoMean
# [24] = Severe acute respiratory syndrome coronavirus 2, HeLa-ACE2, 24 h, curve plateau at infinite concentration; read-out: HeLa-ACE2 CoV-2 Sinf Average
SMILES,EC50 [1],"CC50 at 24 h [2, 19]","HeLa-ACE2 uninfected cytotoxicity Sinf Average [3, 20]","Emax [4, 20]","EC50 [4, 21]",HEK293T 72-hour cytotoxicty Sinf Average ([5]; 72 h),Emax [6],EC50 [6],"Emax [7, 20]","EC50 [7, 22]","CC50 at 48 h [8, 23]",uninfected Calu-3 CC50 [9],Calu-3 uninfected cytotoxicity Sinf Average ([9]; 48 h),Emax [10],EC50 [10],"Emax [12, 24]",Emax [1],HepG2 72-hour cytotoxicity Sinf Average [13],HEK293T 72-hour cytotoxicty Sinf Average [14],CC50 at 72 h [15],other results
Nc1ncnc2c1nc(Cl)n2[C@@H]1O[C@H](CO)[C@@H](O)[C@H]1O [8-Chloroadenosine],> 9.59 µM,> 11.9 µM,-87%,98%,1.07 µM,-98%,100%,> 9.59 µM,96%,4.94 µM,> 27.7 µM,> 27.747 ×÷ 1.135 (n=3) μM,-92%,99%,> 9.98 µM,98%,,,,,"CC50 at 24 h ([2]; reconfirmed hits, read-out: HeLa-ACE2 Uninf. cells CC50): > 11.9 µM; EC50 ([7]; Severe acute respiratory syndrome coronavirus 2, Calu-3, reconfirmed hits, read-out: Calu-3 SARS-CoV-2 EC50): 4.94 µM; CC50 at 48 h ([8]; Calu-3 Uninf. cells CC50 (µM)): > 27.8 µM; HepG2 72-hour cytotoxicity Sinf Average ([11]; 72 h): -69%; EC50 ([12]; Severe acute respiratory syndrome coronavirus 2, HeLa-ACE2, reconfirmed hits; read-out: HeLa-ACE2 SARS-CoV-2 EC50): 0.927 µM"
CCCCc1oc2ccccc2c1C(=O)c1cc(I)c(OCCN(CC)CC)c(I)c1 [Amiodarone],,,,,,,,,,,,,,100%,,,100%,-100%,-100%,10.9 µM,"HeLa-ACE2 uninfected cytotoxicity Sinf Average ([3]; human, uninfected HeLa-ACE2 cells, 24 h): -101%; Emax [4]: 100%; Emax [7]: 100%; Emax ([12]; Severe acute respiratory syndrome coronavirus 2, HeLa-ACE2, 24 h, read-out: HeLa-ACE2 CoV-2 Sinf Average): 96%"
CN1CC2c3ccccc3Oc3ccc(Cl)cc3C2C1 (centres unmarked) [Asenapine maleate],,,-100%,100%,,,,,100%,,,,,,,97%,,-100%,-100%,23.3 µM,"CC50 at 24 h ([2]; detail block, read-out: HeLa-ACE2 uninfected cytotoxicity CC50 GeoMean): > 35.6 µM; CC50 at 72 h [16]: 19.9 µM; CC50 at 48 h [17]: > 29.9 µM; Calu-3 uninfected cytotoxicity Sinf Average [18, 20]: -100%"
COc1ccc2c(c1)[C@]1(C[C@H]1c1ccc3c(/C=C/c4ccc(CN5C[C@@H](C)O[C@@H](C)C5)cc4)n[nH]c3c1)C(=O)N2 [CFI-400945],> 0.117 µM,7.18 µM,-100%,100%,4.57 µM,-95%,100%,> 9.59 µM,100%,3.36 µM,> 19.8 µM,> 19.756 ×÷ 1.816 (n=3) μM,-98%,100%,4.75 µM,100%,53%,,,,"HepG2 72-hour cytotoxicity Sinf Average ([11]; 72 h): -100%; EC50 ([12]; Severe acute respiratory syndrome coronavirus 2, HeLa-ACE2, detail column; read-out: HeLa-ACE2 CoV-2 EC50 GeoMean): > 7 µM"
C[C@H]1O[C@@H](O[C@H]2[C@@H](O)C[C@H](O[C@H]3[C@@H](O)C[C@H](O[C@H]4CC[C@@]5(C)[C@H](CC[C@@H]6[C@@H]5C[C@@H](O)[C@]5(C)[C@@H](C7=CC(=O)OC7)CC[C@]65O)C4)O[C@@H]3C)O[C@@H]2C)C[C@H](O)[C@@H]1O [Digoxin],0.325 µM,0.12 µM,-98%,89%,,,,> 9.59 µM,83%,,,,,-100%,> 9.95 µM,100%,101%,,,,"EC50 ([4]; Severe acute respiratory syndrome coronavirus 2, HeLa-ACE2, detail column): 0.792 µM; HEK293T 72-hour cytotoxicty Sinf Average [5]: -101%; EC50 ([7]; Severe acute respiratory syndrome coronavirus 2, Calu-3, read-out: Calu-3 CoV-2 EC50 GeoMean): 0.169 µM; CC50 [8, 23]: > 5.04 µM; Calu-3 uninfected cytotoxicity Sinf Average [9]: -38%; HepG2 72-hour cytotoxicity Sinf Average [11]: -102%; EC50 ([12]; Severe acute respiratory syndrome coronavirus 2, HeLa-ACE2; read-out: HeLa-ACE2 CoV-2 EC50 GeoMean): 0.166 µM"
Cc1ccc(NC(=O)c2ccc(CN3CCN(C)CC3)cc2)cc1Nc1nccc(-c2cccnc2)n1 [Imatinib mesylate],,,,,,,,,,,,,,100%,,,,-100%,-100%,15.2 µM,"CC50 at 72 h [16]: 12.9 µM; Emax [7]: 100%; CC50 at 48 h [17, 23]: > 29.9 µM; Calu-3 uninfected cytotoxicity Sinf Average ([18]; human, uninfected Calu-3 cells, 48 h): -100%; Emax ([12]; Severe acute respiratory syndrome coronavirus 2, HeLa-ACE2, 24 h; read-out: HeLa-ACE2 CoV-2 Sinf Average): 100%"
